Reference: patent EP4700025A1, “AMIDE COMPOUND, PHARMACEUTICAL COMPOSITION COMPRISING SAME, AND USE THEREOF” (Suzhou Genhouse Bio Co., Ltd., priority 2023, dated 2024)

Legend:
PRMT5 = PRMT5 (Homo sapiens, UniProt O14744); assay: Inhibitory activity against enzymatic activity of PRMT5 (fluorescence polarization); type: biochemical; conditions: PRMT5 25 nM, SAM 1 µM, polypeptide 1 µM, MTA 2 µM; 37 °C 2 hours
Experimental: The compounds were prepared into 10 mM stock solutions using DMSO, and then 9 concentration gradients (with an initial concentration of 10 µM followed by 1:5 dilution) were prepared using a buffer (50 mM Tris-HCl pH 8.5, 5 mM MgCl2, 4 mM DTT, 0.01% Triton X-100, 0.1 M NaCl, 0.5% DMSO), and each well received 5 µL of the diluted compound solutions. SAM, a polypeptide, and MTA were prepared using a buffer to final concentrations of 1 µM, 1 µM, and 2 µM, respectively, and were added to each well in a total of 5 µL. Meanwhile, an MTA-free group was set as a control. […] Subsequently, a mixture of 2.5 µL of stop buffer A, 2.5 µL of an 8× MT assay mixture (final concentration: 1×), and 24 µg/mL AMP2/GMP2 antibodies (final concentration: 3 µg/mL) was added. The resulting mixture was incubated at room temperature for 1.5 hours, and fluorescence polarization (FP) was measured (Ex 633, Em 647). Meanwhile, negative control wells without protein (Blank) and positive control wells without compound (DMSO) were set. Each experiment was independently repeated three times.
Data processing: The numerical values of each group were recorded for statistical analysis, and the inhibition rate was calculated according to the following formula: inhibition percentage of compound wells (% inh) = [1 - (ave Blank - Cpd well)/(ave Blank - ave DMSO control)] × 100. Note: ave represents the average value, and Cpd represents the numerical value of the wells containing the compound. A sigmoidal dose-inhibition rate curve was plotted and fitted using a nonlinear regression model in the GraphPad Prism 7.0 software, and the IC50 value was calculated. Table 1. Inhibitory activity of compounds against enzymatic activity of PRMT5

HCT-116-MTAP^-/- cells = assay: Pharmacodynamic study, HCT-116-MTAP^-/- subcutaneous xenograft; type: in vivo, mouse; conditions: HCT-116-MTAP^-/- xenograft
Experimental: Human colon cancer HCT-116-MTAP^-1- cells were cultured in monolayer in vitro using the McCoy 5A culture medium (HyClone) containing 10% fetal bovine serum (BI) and 1% penicillin and streptomycin (Beyotime) in an incubator at 37 °C with 5% CO2. The cells were digested with trypsin 2 to 3 times weekly for passaging. When the saturation degree of the cells was 80% to 90%, the cells were collected, counted, and inoculated. 5 × 10^6 (0.1 mL) HCT-116-MTAP^-/- cells were subcutaneously inoculated on the right back of each mouse. On about day 15 after inoculation of the cells, the mean tumor volume reached 172 mm^3. The mice were randomly grouped for administration (the animals were divided into an administration group and a control group, with 6 animals in each group). The day of grouping was designated as d0, and intragastric administration was started on d1. The administration was performed once daily at an administration volume of 10 mL/kg. Vehicle control was administered to the control group. The tumor volume was measured 2 to 3 times weekly, and meanwhile, the mice were weighed and the data were recorded; daily observations were made to record the body surface signs of the mice. After the experiment was completed, the tumors were collected, weighed, and photographed for recording.
Calculation formula for tumor volume: Tumor volume (mm^3) = 1/2 × (a×b^2) [formula] (note: a represents long diameter and b represents short diameter) [formula]

[1] = molecular target: T1, hERG Potassium Ion Channel (Homo sapiens, UniProt Q12809); assay: Effect on hERG potassium ion channel (whole-cell patch clamp, HEK293 cells); type: cell-based; conditions: human, whole-cell patch clamp (Qpatch), room temperature
T1 construct: expressed in transfected cells; host or cells: HEK293
T1 sequence (Q12809 whole entry): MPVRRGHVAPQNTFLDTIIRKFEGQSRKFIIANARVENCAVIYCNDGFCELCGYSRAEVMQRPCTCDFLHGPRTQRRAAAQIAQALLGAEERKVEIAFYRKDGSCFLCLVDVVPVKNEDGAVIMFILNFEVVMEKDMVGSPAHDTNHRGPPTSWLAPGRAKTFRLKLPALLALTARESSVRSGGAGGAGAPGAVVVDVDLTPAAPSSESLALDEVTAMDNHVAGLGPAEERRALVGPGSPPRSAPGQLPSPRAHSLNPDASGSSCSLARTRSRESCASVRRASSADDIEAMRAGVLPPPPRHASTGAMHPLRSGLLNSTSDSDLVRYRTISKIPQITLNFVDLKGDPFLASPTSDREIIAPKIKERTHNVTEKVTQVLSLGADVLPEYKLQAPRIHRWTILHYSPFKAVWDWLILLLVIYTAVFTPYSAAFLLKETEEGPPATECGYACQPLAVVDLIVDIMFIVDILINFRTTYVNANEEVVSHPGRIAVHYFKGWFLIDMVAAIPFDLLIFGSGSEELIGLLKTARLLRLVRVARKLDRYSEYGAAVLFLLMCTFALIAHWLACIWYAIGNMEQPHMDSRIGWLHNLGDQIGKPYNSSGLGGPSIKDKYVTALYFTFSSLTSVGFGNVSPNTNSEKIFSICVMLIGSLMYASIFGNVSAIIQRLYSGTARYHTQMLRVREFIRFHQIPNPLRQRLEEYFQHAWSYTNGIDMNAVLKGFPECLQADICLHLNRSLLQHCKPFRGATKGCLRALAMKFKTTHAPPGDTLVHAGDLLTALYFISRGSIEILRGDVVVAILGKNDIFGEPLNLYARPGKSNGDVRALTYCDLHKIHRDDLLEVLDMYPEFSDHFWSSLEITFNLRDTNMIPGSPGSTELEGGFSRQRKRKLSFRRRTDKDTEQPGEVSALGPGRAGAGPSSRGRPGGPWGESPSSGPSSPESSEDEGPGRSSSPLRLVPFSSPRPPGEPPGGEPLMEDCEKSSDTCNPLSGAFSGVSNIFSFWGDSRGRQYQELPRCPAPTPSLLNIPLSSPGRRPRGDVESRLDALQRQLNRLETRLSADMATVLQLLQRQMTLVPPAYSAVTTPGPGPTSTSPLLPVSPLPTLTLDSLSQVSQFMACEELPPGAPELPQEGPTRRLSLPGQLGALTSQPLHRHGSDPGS
Experimental: HEK293 cells were cultured in a DMEM medium containing 10% fetal bovine serum and 0.8 mg/mL G418 at 37 °C with 5% CO2. The cells were digested by TrypLE™ Express and then centrifuged. The cell density was adjusted to 2 × 10^6 cells/mL. The cells were then gently mixed for 15 to 20 min using a shaker equilibrated at room temperature, and subjected to a patch clamp assay on a machine. The culture medium of the prepared cells was replaced with extracellular fluid. The intracellular fluid and the extracellular fluid were taken from the fluid pool and added to the intracellular fluid pool and the cell and test substance pool of the QPlate chip, respectively. The voltage stimulation of the whole-cell hERG potassium current was recorded by the whole-cell patch clamp, and the experimental data were collected and stored by Qpatch. […] The current detected in compound-free extracellular fluid for each cell served as its own control group, and the detection was repeated twice independently using at least two cells per concentration. […] For data analysis, the current after the action of each drug concentration and the current of the blank control were standardized ((Peak tail currentcompound)/(Peak tail currentvehicle)) [formula] , and then the inhibition rate corresponding to each drug concentration was calculated (1−(Peak tail currentcompound)/(Peak tail currentvehicle)) [formula] . […]

Chain of PRMT5 (O14744 whole entry): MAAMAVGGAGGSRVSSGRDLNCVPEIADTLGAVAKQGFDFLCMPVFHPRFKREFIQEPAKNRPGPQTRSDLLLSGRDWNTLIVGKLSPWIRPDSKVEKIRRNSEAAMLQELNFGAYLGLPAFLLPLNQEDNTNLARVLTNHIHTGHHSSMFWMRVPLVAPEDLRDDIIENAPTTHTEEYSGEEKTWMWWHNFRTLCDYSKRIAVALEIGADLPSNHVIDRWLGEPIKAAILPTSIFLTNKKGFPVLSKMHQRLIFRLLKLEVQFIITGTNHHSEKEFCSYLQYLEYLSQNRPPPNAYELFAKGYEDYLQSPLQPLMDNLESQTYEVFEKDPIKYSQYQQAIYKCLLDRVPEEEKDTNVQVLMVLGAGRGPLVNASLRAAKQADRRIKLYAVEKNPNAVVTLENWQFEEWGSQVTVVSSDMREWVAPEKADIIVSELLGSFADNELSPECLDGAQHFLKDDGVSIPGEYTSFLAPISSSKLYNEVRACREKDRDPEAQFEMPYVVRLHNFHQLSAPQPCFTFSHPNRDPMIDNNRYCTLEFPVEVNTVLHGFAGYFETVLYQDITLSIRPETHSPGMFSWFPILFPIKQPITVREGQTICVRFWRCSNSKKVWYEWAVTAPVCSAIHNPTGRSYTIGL
Chain of PRMT5 (Q9BQA1 whole entry partner): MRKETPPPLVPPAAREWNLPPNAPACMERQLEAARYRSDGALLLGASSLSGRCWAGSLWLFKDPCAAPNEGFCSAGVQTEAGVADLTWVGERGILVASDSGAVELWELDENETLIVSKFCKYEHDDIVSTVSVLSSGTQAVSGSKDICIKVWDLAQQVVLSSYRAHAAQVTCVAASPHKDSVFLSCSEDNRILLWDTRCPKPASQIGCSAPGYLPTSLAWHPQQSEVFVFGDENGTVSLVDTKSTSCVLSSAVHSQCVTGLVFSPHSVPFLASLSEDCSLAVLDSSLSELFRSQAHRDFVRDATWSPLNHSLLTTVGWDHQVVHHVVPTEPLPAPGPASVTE

Structure (SMILES)	IC50 (PRMT5) [nM]	Day 28 TGI (HCT-116-MTAP^-/- cells; 10 mpk PO QD) [%]	Day 28 TGI (HCT-116-MTAP^-/- cells; 30 mpk PO QD) [%]	IC50 [1] [nM]
Cn1ncc2c(N)nc3cc(F)c(C(=O)N4CCOC[C@@H]4c4ccc5c(c4)OC(F)(F)O5)cc3c21 [Example I-7]	28.4	84	91	
Cn1ncc2c(N)nc3cc(F)c(C(=O)N(Cc4ccc5c(c4)OC(F)(F)O5)C4CC4)cc3c21 [Example I-16]	34.6	75	92	
Cn1ncc2c(N)nc3cnc(C(=O)N4CCOC[C@@H]4c4ccc5c(c4)OC(F)(F)O5)cc3c21 [Example I-38]				22000
